Laboratory results from patent publication US6737383B1, “Herbicidal oxadiazolidines” (priority 1999, dated 2004).

Assays:
[1] = tested on: sugar beet; experiment: Test B pre/postemergence sugar beet; format: in vivo, Beta vulgaris; settings: for Sugarbeets plant response rating: scale of 0 to 10 where 0 is no effect and 10 is complete control
Outline: (§1)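 Herbicidal effect was estimated by eye on a ten-point control scale after plants spent twelve to sixteen days in a greenhouse following soil or foliar treatment. Foliar sprays targeted plants at one to four leaves; all doses were formulated in a non-phytotoxic solvent with surfactant.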

[2] = tested on: velvetleaf; experiment: Test B pre/postemergence velvetleaf; format: in vivo, Abutilon theophrasti; settings: for Velvetleaf plant response rating: scale of 0 to 10 where 0 is no effect and 10 is complete control
Outline: as §1

[3] = tested on: surinam grass; experiment: Test B pre/postemergence surinam grass; format: in vivo, Brachiaria decumbens; settings: for B. signalgrass plant response rating: scale of 0 to 10 where 0 is no effect and 10 is complete control
Outline: as §1

[4] = tested on: purple nutsedge; experiment: Test B pre/postemergence purple nutsedge; format: in vivo, Cyperus rotundus; settings: for Nutsedge plant response rating: scale of 0 to 10 where 0 is no effect and 10 is complete control
Outline: as §1

[5] = tested on: pigweed; experiment: Test B pre/postemergence pigweed; format: in vivo, Amaranthus retroflexus; settings: for Redroot pigweed plant response rating: scale of 0 to 10 where 0 is no effect and 10 is complete control
Outline: as §1

[6] = tested on: blackgrass; experiment: Test B pre/postemergence blackgrass; format: in vivo, Alopecurus myosuroides; settings: for Blackgrass plant response rating: scale of 0 to 10 where 0 is no effect and 10 is complete control
Outline: as §1

[7] = tested on: rice; experiment: Test B flood test rice; format: in vivo, Oryza sativa; settings: Pre-emergence
Outline: (§2)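 Read-out is a visual response score from 0 (no effect) to 10 (complete control), assigned by comparison with untreated controls. Treatment was applied at the 2-leaf stage, and plants stayed in the greenhouse for twelve to sixteen days before scoring.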

[8] = tested on: crabgrass; experiment: Test B pre/postemergence crabgrass; format: in vivo, Digitaria sanguinalis; settings: for Crabgrass plant response rating: scale of 0 to 10 where 0 is no effect and 10 is complete control
Outline: as §1

[9] = tested on: morningglory; experiment: Test B pre/postemergence morningglory; format: in vivo, Ipomoea hederacea; settings: for Morningglory plant response rating: scale of 0 to 10 where 0 is no effect and 10 is complete control
Outline: as §1

[10] = tested on: giant foxtail; experiment: Test B pre/postemergence giant foxtail; format: in vivo, Setaria faberii; settings: for Giant foxtail plant response rating: scale of 0 to 10 where 0 is no effect and 10 is complete control
Outline: as §1

[11] = tested on: duck salad; experiment: Test B flood test duck salad; format: in vivo, Heteranthera limosa; settings: Pre-emergence
Outline: as §2

[12] = tested on: rape; experiment: Test B pre/postemergence rape; format: in vivo, Brassica napus; settings: for Rape plant response rating: scale of 0 to 10 where 0 is no effect and 10 is complete control
Outline: as §1

[13] = tested on: cocklebur; experiment: Test B pre/postemergence cocklebur; format: in vivo, Xanthium strumarium; settings: for Cocklebur plant response rating: scale of 0 to 10 where 0 is no effect and 10 is complete control
Outline: as §1

[14] = tested on: smallflower flatsedge; experiment: Test B flood test smallflower flatsedge; format: in vivo, Cyperus difformis; settings: Pre-emergence
Outline: as §2

[15] = tested on: corn; experiment: Test B pre/postemergence corn; format: in vivo, Zea mays; settings: for Corn plant response rating: scale of 0 to 10 where 0 is no effect and 10 is complete control
Outline: as §1

[16] = tested on: wheat; experiment: Test B pre/postemergence wheat; format: in vivo, Triticum aestivum; settings: for Wheat plant response rating: scale of 0 to 10 where 0 is no effect and 10 is complete control
Outline: as §1

[17] = Postemergence, Rate 125 g/ha, scale 0 to 10, 0 is no effect, 10 is complete control
[18] = Postemergence, Rate 250 g/ha, scale 0 to 10, 0 is no effect, 10 is complete control
[19] = Preemergence, Rate 62 g/ha, scale 0 to 10 (0 no effect, 10 complete control)
[20] = Rate 500 g/ha, Postemergence, scale 0 to 10, 0 no effect, 10 complete control
[21] = Rate 62 g/ha, flood test species, visual evaluation after twelve to sixteen days
[22] = Rate 125 g/ha, flood test species, scale 0 to 10 where 0 is no effect and 10 is complete control
[23] = Rate 250 g/ha, flood-test species, scale 0 to 10, 0 is no effect, 10 is complete control
[24] = Rate 500 g/ha, flood test species, scale 0 to 10 (0 no effect, 10 complete control)

CC(C)N(C(=O)n1oc(=O)n(C)c1=O)c1ccc(F)cc1F [Compound 368]
7: Velvetleaf plant response rating (0 to 10 scale) ([2]; Preemergence, Rate 125 g/ha) | Plant response rating, Velvetleaf [2, 20] | Plant response rating, B. signalgrass [3, 20] | Plant response rating, Redroot pigweed [5, 20] | Plant response rating, Blackgrass [6, 17] | Blackgrass plant response rating ([6]; Rate 62 g/ha, Postemergence) | Plant response rating, Morningglory [9, 20] | Corn plant response rating ([15]; Preemergence, Rate 250 g/ha) | Plant response rating, Corn [15, 20]
3: Plant response rating, Sugarbeets [1, 20] | Plant response rating, Velvetleaf [2, 18] | Plant response rating, Redroot pigweed [5, 17] | Morningglory plant response rating ([9]; Preemergence, Rate 250 g/ha) | Plant response rating, Cocklebur [13, 18] | Plant response rating, Corn [15, 19] | Plant response rating, Wheat [16, 17]
2: Plant response rating, Sugarbeets [1, 18] | Nutsedge plant response rating (0 to 10 scale) ([4]; Preemergence, Rate 125 g/ha) | Redroot pigweed plant response rating ([5]; Rate 62 g/ha, Postemergence) | Morningglory plant response rating ([9]; Rate 62 g/ha, Postemergence) | Plant response rating, Rape [12, 18] | Plant response rating, Cocklebur [13, 17] | S. Flatsedge plant response rating [14, 23]
4: Plant response rating, Velvetleaf [2, 19] | Plant response rating, Redroot pigweed [5, 18] | Plant response rating, Morningglory [9, 17] | S. Flatsedge plant response rating [14, 24] | Plant response rating, Wheat [16, 18] | Wheat plant response rating (0 to 10 scale) ([16]; Preemergence, Rate 125 g/ha)
5: Plant response rating, B. signalgrass [3, 17] | Rice plant response rating [7, 24] | Plant response rating, Morningglory [9, 18] | Morningglory plant response rating ([9]; Preemergence, Rate 500 g/ha) | Plant response rating, Rape [12, 20] | Plant response rating, Cocklebur [13, 20] | Plant response rating, Corn [15, 17]
9: Blackgrass plant response rating (0 to 10 scale) ([6]; Preemergence, Rate 125 g/ha) | Plant response rating, Giant foxtail [10, 18] | Plant response rating, Giant foxtail [10, 20]
0: Plant response rating, Sugarbeets [1, 17] | Sugarbeets plant response rating ([1]; Rate 62 g/ha, Postemergence) | Plant response rating, Velvetleaf [2, 17] | Velvetleaf plant response rating ([2]; Rate 62 g/ha, Postemergence) | B. signalgrass plant response rating ([3]; Rate 62 g/ha, Postemergence) | Plant response rating, Nutsedge [4, 17] | Plant response rating, Nutsedge [4, 18] | Plant response rating, Nutsedge [4, 19] | Nutsedge plant response rating ([4]; Rate 62 g/ha, Postemergence) | Plant response rating, Nutsedge [4, 20] | Plant response rating, Rice (0 to 10 scale, 0 is no effect, 10 is complete control) [7, 21] | Rice plant response rating [7, 22] | Rice plant response rating [7, 23] | Plant response rating, Morningglory [9, 19] | Plant response rating, Ducksalad (0 to 10 scale, 0 is no effect, 10 is complete control) [11, 21] | Ducksalad plant response rating [11, 22] | Ducksalad plant response rating [11, 23] | Ducksalad plant response rating [11, 24] | Plant response rating, Rape [12, 17] | Plant response rating, Rape [12, 19] | Rape plant response rating (0 to 10 scale) ([12]; Preemergence, Rate 125 g/ha) | Rape plant response rating ([12]; Rate 62 g/ha, Postemergence) | Plant response rating, Cocklebur [13, 19] | Cocklebur plant response rating (0 to 10 scale) ([13]; Preemergence, Rate 125 g/ha) | Cocklebur plant response rating ([13]; Preemergence, Rate 250 g/ha) | Cocklebur plant response rating ([13]; Preemergence, Rate 500 g/ha) | Cocklebur plant response rating ([13]; Rate 62 g/ha, Postemergence) | Plant response rating, S. Flatsedge (0 to 10 scale, 0 is no effect, 10 is complete control) [14, 21] | S. Flatsedge plant response rating [14, 22] | Corn plant response rating ([15]; Rate 62 g/ha, Postemergence) | Plant response rating, Wheat [16, 19] | Wheat plant response rating ([16]; Rate 62 g/ha, Postemergence)
10: Sugarbeets plant response rating ([1]; Preemergence, Rate 250 g/ha) | Sugarbeets plant response rating ([1]; Preemergence, Rate 500 g/ha) | Velvetleaf plant response rating ([2]; Preemergence, Rate 250 g/ha) | Velvetleaf plant response rating ([2]; Preemergence, Rate 500 g/ha) | Nutsedge plant response rating ([4]; Preemergence, Rate 250 g/ha) | Nutsedge plant response rating ([4]; Preemergence, Rate 500 g/ha) | Plant response rating, Redroot pigweed [5, 19] | Redroot pigweed plant response rating (0 to 10 scale) ([5]; Preemergence, Rate 125 g/ha) | Redroot pigweed plant response rating ([5]; Preemergence, Rate 250 g/ha) | Redroot pigweed plant response rating ([5]; Preemergence, Rate 500 g/ha) | Blackgrass plant response rating ([6]; Preemergence, Rate 250 g/ha) | Blackgrass plant response rating ([6]; Preemergence, Rate 500 g/ha) | Plant response rating, Crabgrass [8, 19] | Crabgrass plant response rating (0 to 10 scale) ([8]; Preemergence, Rate 125 g/ha) | Crabgrass plant response rating ([8]; Preemergence, Rate 250 g/ha) | Crabgrass plant response rating ([8]; Preemergence, Rate 500 g/ha) | Plant response rating, Giant foxtail [10, 19] | Giant foxtail plant response rating (0 to 10 scale) ([10]; Preemergence, Rate 125 g/ha) | Giant foxtail plant response rating ([10]; Preemergence, Rate 250 g/ha) | Giant foxtail plant response rating ([10]; Preemergence, Rate 500 g/ha) | Rape plant response rating ([12]; Preemergence, Rate 500 g/ha) | Corn plant response rating ([15]; Preemergence, Rate 500 g/ha) | Wheat plant response rating ([16]; Preemergence, Rate 500 g/ha)
8: Sugarbeets plant response rating (0 to 10 scale) ([1]; Preemergence, Rate 125 g/ha) | B. signalgrass plant response rating ([3]; Preemergence, Rate 250 g/ha) | B. signalgrass plant response rating ([3]; Preemergence, Rate 500 g/ha) | Plant response rating, Blackgrass [6, 18] | Plant response rating, Blackgrass [6, 19] | Plant response rating, Blackgrass [6, 20] | Plant response rating, Crabgrass [8, 17] | Plant response rating, Crabgrass [8, 18] | Plant response rating, Crabgrass [8, 20] | Plant response rating, Giant foxtail [10, 17] | Giant foxtail plant response rating ([10]; Rate 62 g/ha, Postemergence) | Wheat plant response rating ([16]; Preemergence, Rate 250 g/ha)
1: Plant response rating, B. signalgrass [3, 19] | Morningglory plant response rating (0 to 10 scale) ([9]; Preemergence, Rate 125 g/ha)
6: Plant response rating, Sugarbeets [1, 19] | Plant response rating, B. signalgrass [3, 18] | B. signalgrass plant response rating (0 to 10 scale, 0 is no effect, 10 is complete control) ([3]; Preemergence, Rate 125 g/ha) | Crabgrass plant response rating ([8]; Rate 62 g/ha, Postemergence) | Rape plant response rating ([12]; Preemergence, Rate 250 g/ha) | Plant response rating, Corn [15, 18] | Corn plant response rating (0 to 10 scale) ([15]; Preemergence, Rate 125 g/ha) | Plant response rating, Wheat [16, 20]
